Experimental data published in US9402819B2, “Anti-HIV compound and preparation method and use thereof” (Sichuan University, priority 2012, dated 2016).
Converted amounts (≈) assume the structure as drawn.

Legend:
[1] = test system: HIV-1IIIB; experiment: Anti-HIV activity in C8166 cells; format: cell-based; conditions: C8166 cells; for TI: CC50/EC50; for EC50: Human immunodeficiency virus 1, HIV-1IIIB, read-out: EC50
Protocol: (§1) The anti-HIV activity was determined by the “Guiding Principles of Anti HIV Drug Unclinical Pharmacodynamics” of SFDA which is tested by technology standard assay according to International Universal Standards and Methods. Where in CC50, EC50 were measured twice and took the average.

[2] = Cytotoxicity (CC50) in C8166 cells; format: cell-based; conditions: human
Protocol: as §1

[3] = test system: HIV-1IIIB; experiment: Anti-HIV activity in H9 cells; format: cell-based; conditions: H9 cells; for TI: CC50/EC50; for EC50: Human immunodeficiency virus 1, HIV-1IIIB, read-out: EC50
Protocol: as §1

[4] = Activity for HIV-2 ROD
[5] = test system: HIV-2 ROD; experiment: Activity for HIV-2 ROD; conditions: for TI: HIV-2 ROD; for EC50: Human immunodeficiency virus 2
[6] = Cytotoxicity (CC50) in H9 cells; format: cell-based, human; conditions: human, read-out: CC50
Protocol: as §1

[7] = test system: HIV-2 CBL-20; experiment: Activity for HIV-2 CBL-20; conditions: for TI: HIV-2 CBL-20; for EC50: Human immunodeficiency virus 2
[8] = Activity for HIV-2 CBL-20
[9] = Solubility in aqueous solution; format: physicochemical
Source text: Solubility is an important parameter of druggability. […] They are with good solubility and can be formulated into an oral formulation. The prodrugs can be hydrolyzed into 46 which is with good fat-solubility and TI as well as distribution.

[10] = test system: H9 cells; experiment: Cytotoxicity (CC50) in H9 cells; format: cell-based, human
Protocol: as §1

[11] = test system: HIV-1A17; experiment: microbe, parasite or virus in culture; conditions: Human immunodeficiency virus 1
[12] = test system: HIV-1TC-1; experiment: microbe, parasite or virus in culture; conditions: Human immunodeficiency virus 1
[13] = for safety at high dose: high dose (10 g/kg); for acute toxicity test finding: in vivo
[14] = test system: HIVKM018; experiment: microbe, parasite or virus in culture; conditions: Human immunodeficiency virus 1
[15] = Stability (degradation) in solutions of different pH; format: physicochemical
Protocol: For example, compound 67 was tested in solutions with PH=4.004, 6.864 and 9.182, and its degradation rate was […]. […] As to the Mechanism of action of the compounds, the possible binding mode between 46 and vif was predicted by docking There are five possible hydrogen bonds between them: two hydrogen bonds between the nitro group and Arg79 and Lys178, two hydrogen bonds between the oxygen atom of methoxyl group with His141 and Arg97, one hydrogen bond between the nitrogen atom of pyridine with Gly103. (The binding mode can be seen in FIG. 4)

[16] = simulated gastric fluid, in aqueous solution (pH=2)

With `COc1ccccc1NC(=O)c1c(N)cccc1Sc1ccc([N+](=O)[O-])cc1` [Compound 25, 2-amino-N-(2-methoxyphenyl)-6-(4-nitrophenylthi-o)benzamide] as the compound, how does the TI [1] read?
Its TI is 310.02.

What about the EC50 [1] of the same compound?
Its EC50 is 0.21 µg/mL (≈ 0.531 µM).

What about the CC50 [2] of the same compound?
The CC50 was 65.4 µg/mL (≈ 165 µM).

And the TI [3]?
The TI was 206.68.

What about the EC50 [3] of the same compound?
Its EC50 is 0.74 µg/mL (≈ 1.87 µM).

And the CC50 [4]?
The CC50 was 185 µg/mL (≈ 467 µM).

And the TI [5]?
The TI was 312.90.

What about the EC50 [5] of the same compound?
The EC50 was 0.59 µg/mL (≈ 1.49 µM).

What about the CC50 ([6]; H9 cells) of the same compound?
Its CC50 is 153 µg/mL (≈ 387 µM).

What about the TI [7] of the same compound?
The TI was 199.72.

And the EC50 [7]?
Its EC50 is 0.82 µg/mL (≈ 2.07 µM).

What about the CC50 [8] of the same compound?
The CC50 was 164 µg/mL (≈ 414 µM).

For `COc1ccccc1NC(=O)c1c(NC(=O)CN)cccc1Sc1ccc([N+](=O)[O-])cc1.Cl` [Compound 66, 2-(2-aminoacetamido)-N-(2-methoxyphenyl)-6-(4-nitrophenylthio)benzamide hydrochloride], which solubility [9, 16] is on record?
The solubility was 1290 µg/mL.

What about the TI [1] of the same compound?
Its TI is 97.01.

And the EC50 [1]?
Its EC50 is 0.81 µg/mL.

What about the CC50 [2] of the same compound?
The CC50 was 78.3 µg/mL.

And the TI [3]?
The TI was 451.69.

And the EC50 [3]?
Its EC50 is 0.16 µg/mL.

What about the CC50 ([6]; H9 cells) of the same compound?
The CC50 was 72.3 µg/mL.

Which TI [3] does the source give for `COc1ccccc1NC(=O)c1c(N)cccc1Oc1ccc([N+](=O)[O-])cc1` [Compound 48, 2-amino-N-(2-methoxyphenyl)-6-(4-nitrop-henoxy)benzamide] here?
Its TI is 2.14.

What about the CC50 [10] of the same compound?
The CC50 was 76.60 µg/mL (≈ 202 µM).

Which solubility [9, 16] does the source give for `COc1ccccc1NC(=O)c1c(NC(=O)C(N)CCCCN)cccc1Sc1ccc([N+](=O)[O-])cc1.Cl` (stereo not drawn) [Compound 68, 2-(2,6-diaminohexanamido)-N-(2-methoxyphenyl)-6-((4-nitrophenyl)thio)benzamide hydrochloride] here?
The solubility was 2850 µg/mL.

And the CC50 [2]?
Its CC50 is 116 µg/mL.

And the CC50 ([6]; H9 cells)?
The CC50 was 90.1 µg/mL.

Which EC50 [1] does the source give for `COc1ccccc1NC(=O)c1c(N)cccc1S(=O)(=O)c1ccc([N+](=O)[O-])cc1` [Compound 46, 2-amino-N-(2-methoxyphenyl)-6-((4-nitroph-enyl)sulfonyl)benzamide] here?
The EC50 was 0.096 µg/mL (≈ 0.225 µM).

What about the EC50 [11] of the same compound?
The EC50 was 18.7 µg/mL (≈ 43.8 µM).

And the CC50 [2]?
The CC50 was 141 µg/mL (≈ 329 µM).

And the EC50 [12]?
Its EC50 is 0.11 µg/mL (≈ 0.257 µM).

And the EC50 [3]?
Its EC50 is 0.66 µg/mL (≈ 1.54 µM).

What about the “safety at high dose” value [13] of the same compound?
The value was “very safe”.

And the “acute toxicity test finding” value [13]?
Its value is “no abnormal phenomenon occurred”.

What about the CC50 [4] of the same compound?
The CC50 was greater than 200 µg/mL.

And the TI [5]?
The TI was 487.8.

What about the EC50 [5] of the same compound?
Its EC50 is 0.41 µg/mL (≈ 0.959 µM).

And the EC50 [14]?
Its EC50 is 6.23 µg/mL (≈ 14.6 µM).

And the CC50 [6]?
Its CC50 is greater than 200 µg/mL.

And the TI [7]?
Its TI is 444.44.

What about the EC50 [7] of the same compound?
Its EC50 is 0.45 µg/mL (≈ 1.05 µM).

And the CC50 [8]?
Its CC50 is greater than 200 µg/mL.

With `COc1ccccc1NC(=O)c1c(NC(=O)CN)cccc1S(=O)(=O)c1ccc([N+](=O)[O-])cc1.Cl` [Compound 67, 2-(2-aminoacetamido)-N-(2-methoxyphenyl)-6-((4-nitrophenyl)sulfonyl)benzamide hydrochloride hydrochloride] as the compound, how does the solubility ([9]; aqueous buffer, in water with pH=7) read?
Its solubility is 1730 µg/mL.

What about the degradation rate ([15]; solution PH=4.004) of the same compound?
The degradation rate was 0.2767.

What about the degradation rate ([15]; solution PH=6.864) of the same compound?
Its degradation rate is 0.4956.

And the degradation rate ([15]; solution PH=9.182)?
Its degradation rate is 9.182.

What about the CC50 [2] of the same compound?
Its CC50 is 165 µg/mL.

And the “safety at high dose” value [13]?
The value was “very safe”.

What about the “acute toxicity test finding” value [13] of the same compound?
Its value is “no abnormal phenomenon occurred”.

What about the CC50 [4] of the same compound?
The CC50 was 126 µg/mL.

And the EC50 [5]?
Its EC50 is 0.78 µg/mL.

What about the CC50 ([6]; H9 cells) of the same compound?
The CC50 was 94.9 µg/mL.

What about the EC50 [7] of the same compound?
The EC50 was 1.21 µg/mL.

What about the CC50 [8] of the same compound?
Its CC50 is 106 µg/mL.
